Data: US20230063321A1, “Methods for Treating Inflammatory Bowel Diseases with alpha4beta7 Integrin Antagonists” (Protagonist Therapeutics, Inc., priority 2020, published 2023)
Numbered stars: 1 amine (or outer) side, 2 acyl side, 3 side chain; on linkers, the order of the positions; unused ones are H or OH. Bridge positions count the residues as written; N and C are the ends. Square brackets hold non-standard residues; d marks the D form. Peptide text beside a SMILES is read from it. I, II: the chains in the order shown. ξ: configuration not given here. Phe(4-tBu) = CC(C)(C)c1ccc(C[C@H](N)C(=O)O)cc1; Diglycolyl = O=C(COCC(=O)[*:2])[*:1]; NMeR = CN[C@@H](CCCNC(=N)N)C(=O)O; β3hE = N[C@@H](CCC(=O)O)CC(=O)O; Thr(3ξ) = CC(O)[C@H](N)C(=O)O; X1 = O=C(c1ccccc1C[*:2])[*:1]; Pen = CC(C)(S)[C@H](N)C(=O)O

Tests used:
[1] = Study 1 pharmacokinetics in healthy male volunteers (liquid solution); conditions: for Tmax / half-life / dose excreted: male, human; for Tmax / half-life: plasma; for dose excreted: urine, recovered intact in urine over 24 hours, multiple dose
Protocol: Dose escalation proceeded from 100 mg, 300 mg, 1000 mg, 1400 mg. Subjects in the 300 mg dose cohort received treatment in the fasted state on one occasion and following a high fat meal on a second occasion in a crossover fashion. The high fat meal consisted of two eggs fried in butter, two strips of bacon, two slices of toast with butter, four ounces of hash brown potatoes and 240 ml of whole milk. During Part 1, subjects refrained from food and drink except water for 10 hours before and for four hours after dosing with the exception of subjects in the 300 mg dose cohort during the fed treatment.
Part 2 was a randomized, placebo-controlled, double-blind multiple ascending dose study in 50 male subjects divided equally into 5 cohorts. […] Doses evaluated in Part 2 included 100 mg, 300 mg and 1000 mg. During Part 2, two cohorts of subjects (100 mg and 300 mg) received food approximately 30 minutes prior to each dose and another two cohorts of subjects (300 mg and 100 mg) refrained from food for 10 hours before and for 1 hour after dosing.
Study 1: The single and multiple ascending dose phase of the study consisted of sequential dose escalations in 10 subject per dose cohort. […] Dose solutions were formulated in 50 mM phosphate buffer pH 7.4 and were prepared weekly by a qualified pharmacist.
Blood samples for pharmacokinetics were collected predose and for 48 hours postdose following single doses. In the multiple ascending dose phase, blood samples were obtained on Days 1-3 and 14-16; on Days 8 samples were obtained predose, 4, and 12 hours. On Day 10 of the MAD, subjects were required to collect all urine for the 0-6, 6-12, 12-18, and 18-24 hour intervals postdose and on Day 11 subjects were required to collect fecal samples.
The drug and internal standard were extracted from the matrix by a protein precipitation procedure. The limit of quantitation was 0.2 ng/mL, 20 ng/mL, and 100 ng/mL in plasma, urine, and feces, respectively. […] Coefficient of determinations for the calibration curves were at least 0.99 for all matrices. The interassay accuracy (% bias) ranged from −2.2% to 1.0% for plasma, −3.8% to 9.0% for urine and −5.0 to 5.2% for feces. Interassay precision (% CV) ranged from 3.7% to 7.7% for plasma, 2.8% to 7.0% for urine, and 1.2% to 5.2% for feces.
Pharmacokinetic parameters were estimated by noncompartmental methods using Phoenix WinNonlin (Certara, Princeton N.J.). Peak plasma concentration (Cmax) and time to peak plasma concentration (Tmax) were observed values. The elimination rate was estimated from the slope of the least-squares regression on the terminal log-linear phase. Area under the plasma concentration-time curve from time zero to the last quantifiable concentration (AUCt) was estimated by a linear trapezoidal method and was extrapolated to infinity (AUC∞) by dividing the last quantifiable concentration b the elimination rate.

[2] = 28-day toxicology studies (NOEL); assay type: in vivo, rats and cynomolgus monkeys; conditions: standard allometric scaling and 10-fold safety margin
Protocol: The starting dose in the first in human single and multiple dose study was based on consideration of the no observed effect level (NOEL) from 28-day toxicology studies in rats and cynomolgus monkeys, and the receptor occupancy noted in cynomolgus monkeys. The NOEL determined in rats and monkeys translated to a human equivalent dose of approximately 145 mg using standard allometric scaling and a 10-fold safety margin. A starting dose of 100 mg was selected with initial stepwise escalations of approximately 3-fold.

[3] = Drug exposure in plasma and Peyer's patches after oral dosing
Protocol: One hour following dosing, mice were euthanized and whole blood/plasma and Peyer's patches were collected. Peyer's patches were dispersed in 1 mL RPMI medium with 2% FBS without washing step. Whole blood and single cell suspension of Peyer's patches (100 uL out of 1 mL total) were submitted for flow cytometry to determine α4β7 receptor occupancy. % RO=(1−(% positive test sample/% positive median vehicle control))*100. Plasma and Peyer's patches dispersed in single cell suspension (500 uL of 1 mL total) were also analyzed for drug exposure.

[4] = test system: gut homing of ATRA+ T cells; test: Gut homing of cultured T cells transferred into recipient mice; assay type: in vivo, C57BL/6 mice
Protocol: Purified CD3+ cells were isolated from B6.SJL (CD45.1+) donor mice and cultured in the presence of anti-CD3/anti-CD28 beads and IL-2 to induce T cell activation and proliferation. In some culture conditions, Compound A and/or ATRA were added. To track the cells in vivo, ATRA− and ATRA+ cells were labeled with CMFDA and CTFR respectively. These labeled cells were then co-injected into C57BL/6 (CD45.2+) recipient mice.
The proportion of ATRA− and ATRA+ cells in spleen, Peyer's patches (PP), and ileal lamina propria (LP) of the recipient mice was measured by flow cytometry to evaluate cell homing.
Thirty-eight (38) C57BL/6 (CD45.2+) recipient mice were acclimated for 9 weeks before the start of the study (Day 0) and were 16 weeks old at cell transfer (Day 5). On Day 4, recipient mice were assigned to groups in a balanced manner to achieve similar average weight across the groups.
On Day 5, after removal of CD3/CD28 beads from cell cultures with a magnet, ATRA+ cells were labeled with CFTR, and ATRA− cells were labeled with CMFDA. Cells from each culture condition were then counted. For each group, ATRA− cells and cells from one of the ATRA+ culture conditions were mixed at a 1:1 ratio per Table 8 below and transferred into the recipient mice. Approximately 13 million of each type of cells (total of 26 million cells) were injected i.v. into each mouse.
Mice in Group 2 were dosed with anti-VLA-4 once, on Day 5 prior to cell transfer. Anti-VLA-4 (PS/2) antibodies were purchased from BioXCell and were kept at −80 C until needed. Antibodies were diluted to a final concentration of 1 mg/mL with sterile PBS and dosed at 10 mg/kg, intraperitoneally. No in vivo treatment was administered to other groups.
Twenty (20) to 22 hours after cell transfer all mice were euthanized, and their blood, spleen, Peyer's patches and small intestines collected. Approximately 50 μL of plasma was isolated from the blood of each mouse and sored on dry ince until further analysis.
Cells from the following tissues were isolated from each mouse for flow cytometric analysis: • Spleen • Peyer's patches • Ileal lamina propria Isolated cells were counted and stained with anti-CD45.1 antibodies and live/dead stain. Cells were then acquired for flow cytometric analysis and the proportions of CD45.1+, ATRA+ and ATRA− cells in each tissue determined.

Work on `CC(C)C[C@@H]1NC(=O)[C@H](C(C)O)NC(=O)[C@H](CC(=O)O)NC(=O)[C@H](CO)NC(=O)[C@H](CCCNC(=N)N)N(C)C(=O)c2ccccc2CSC(C)(C)[C@@H](C(=O)N[C@@H](Cc2ccc(C(C)(C)C)cc2)C(=O)N[C@@H](CCC(=O)O)CC(=O)N[C@H](CCCCNC(=O)COCC(=O)NCCCC[C@@H](NC(=O)C[C@H](CCC(=O)O)NC(=O)[C@H](Cc2ccc(C(C)(C)C)cc2)NC(=O)[C@H]2NC(=O)[C@H](CC(C)C)NC(=O)[C@H](C(C)O)NC(=O)[C@H](CC(=O)O)NC(=O)[C@H](CO)NC(=O)[C@H](CCCNC(=N)N)N(C)C(=O)c3ccccc3CSC2(C)C)C(=O)O)C(=O)O)NC1=O` (stereo partly drawn) [Compound A, ((2-Benzyl)-(N-Me-R)-Ser-Asp-Thr-Leu-Pen-(Phe(4-tBlu))-(β-homo-Glu)-(D-Lys)-OH)2 (SEQ ID NO: 5) and linker-DIG diglycolic acid] (I: [NMeR]SD[Thr(3ξ)]L[Pen][Phe(4-tBu)][β3hE][dK]-OH / II: [NMeR]SD[Thr(3ξ)]L[Pen][Phe(4-tBu)][β3hE][dK]-OH; linker I:9-II:9 via Diglycolyl; linker I:N-I:6, II:N-II:6 via X1) yielded a Tmax ([1]; oral, 1000 mg, Tmax (h), 1000 mg Fasted once daily, Day 14, Median (Min, Max)) of 2 h, a Tmax ([1]; oral, 1000 mg, Tmax (h), single dose 1000 mg, Median (Min, Max)) of 4 h and a half-life ([1]; oral, 1000 mg, t½ (h), 1000 mg Fasted once daily, Day 1, Mean ± SD) of 6.6 ± 1.99 h. It also gave a half-life ([1]; oral, 1000 mg, t½ (h), 1000 mg Fasted once daily, Day 14, Mean ± SD) of 7.7 ± 3.69 h, a half-life ([1]; oral, 1000 mg, t½ (h), single dose 1000 mg, Mean ± SD, N = 7) of 5.26 ± 0.91 h and a Tmax ([1]; oral, 1400 mg, Tmax (h), single dose 1400 mg, Median (Min, Max)) of 4 h. For the same molecule, the half-life ([1]; oral, 1400 mg, mean elimination half-life, single doses 1000 and 1400 mg) was 5.3 to 5.7 h, the half-life ([1]; oral, 1400 mg, t½ (h), single dose 1400 mg, Mean ± SD) was 5.74 ± 1.35 h and the half-life ([1]; oral, mean elimination half-life, multiple doses) was 5.2 to 7.7 h. For the same molecule, the half-life ([1]; oral, terminal half-life, fasted state) was 3.1 to 5.7 h, the half-life ([1]; oral, terminal half-life, fed state) was 5.2 to 7.7 h and the Tmax ([1]; po, 300 mg, median time to peak plasma concentration, single dose 300 mg, meal 30 minutes after dosing) was 1 h. The dose excreted ([1]; po, 300 mg, 300 mg fasted) was 0.028%, the dose excreted ([1]; po, 300 mg, 300 mg fed) was 0.056% and the dose excreted ([1]; po, 1000 mg) was 0.056%. The accumulation ([1]; once daily) was “approximately 0.9 fold”, the “median time to peak plasma concentration” value ([1]; single dose 300 mg, meal 60 minutes after dosing) was 2 h and the “median time to peak plasma concentration” value ([1]; single dose 300 mg, meal 90 minutes after dosing) was 4 h. For the same molecule, the accumulation ([1]; twice-daily) was roughly 1.6 fold, the “human equivalent dose of the NOEL” value [2] was “approximately 145 mg” and the “concentration in plasma and Peyer's Patches vs dose” value ([3]; 3 and 30 mg/kg) was “significant dose-dependent increase”. For the same molecule, the “concentration in Peyer's Patches compared to plasma” value ([3]; both dose levels (3 and 30 mg/kg)) was “significantly higher”, the “ATRA+/10^3 live cells +/− SD in Ileal LP” value ([4]; cells cultured with 100 nM) was 4.3 +/− 1.7 /10^3 live cells and the “ATRA+/10^3 live cells +/− SD in Peyer's patches” value ([4]; cells cultured with 100 nM) was 0.3 +/− 0.2 /10^3 live cells. The “ATRA+/10^3 live cells +/− SD in spleen” value ([4]; cells cultured with 100 nM) was 2.9 +/− 0.3 /10^3 live cells, the “ATRA−/10^3 live cells +/− SD in Ileal LP” value ([4]; cells cultured with 100 nM) was 0.3 +/− 0.1 /10^3 live cells and the “ATRA−/10^3 live cells +/− SD in Peyer's patches” value ([4]; cells cultured with 100 nM) was 0.2 +/− 0.2 /10^3 live cells. The “ATRA−/10^3 live cells +/− SD in spleen” value ([4]; cells cultured with 100 nM) was 9.0 +/− 1.1 /10^3 live cells, the “CD45.1+ cells/10^3 live cells +/− SD, Ileal LP” value ([4]; cells cultured with 100 nM) was 4.6 +/− 1.8 /10^3 live cells and the “CD45.1+ cells/10^3 live cells +/− SD, Peyer's patches” value ([4]; cells cultured with 100 nM) was 0.6 +/− 0.3 /10^3 live cells. The “CD45.1+ cells/10^3 live cells +/− SD, Spleen” value ([4]; cells cultured with 100 nM) was 12.1 +/− 1.4 /10^3 live cells, the “Total number of cells isolated (×10^3), Ileal LP” value ([4]; cells cultured with 100 nM) was 2005 +/− 1276 ×10^3 and the “Total number of cells isolated (×10^3), Peyer's patches” value ([4]; cells cultured with 100 nM) was 673 +/− 295 ×10^3. The “Total number of cells isolated (×10^3), Spleen” value ([4]; cells cultured with 100 nM) was 100650 +/− 10215 ×10^3, the “ATRA+/10^3 live cells +/− SD in Ileal LP” value ([4]; cells cultured with 1000 nM) was 3.5 +/− 1.8 /10^3 live cells and the “ATRA+/10^3 live cells +/− SD in Peyer's patches” value ([4]; cells cultured with 1000 nM) was 0.3 +/− 0.1 /10^3 live cells. For the same molecule, the “ATRA+/10^3 live cells +/− SD in spleen” value ([4]; cells cultured with 1000 nM) was 2.4 +/− 0.5 /10^3 live cells, the “ATRA−/10^3 live cells +/− SD in Ileal LP” value ([4]; cells cultured with 1000 nM) was 0.2 +/− 0.1 /10^3 live cells and the “ATRA−/10^3 live cells +/− SD in Peyer's patches” value ([4]; cells cultured with 1000 nM) was 0.2 +/− 0.1 /10^3 live cells. The “ATRA−/10^3 live cells +/− SD in spleen” value ([4]; cells cultured with 1000 nM) was 8.0 +/− 1.4 /10^3 live cells, the “CD45.1+ cells/10^3 live cells +/− SD, Ileal LP” value ([4]; cells cultured with 1000 nM) was 3.8 +/− 1.7 /10^3 live cells and the “CD45.1+ cells/10^3 live cells +/− SD, Peyer's patches” value ([4]; cells cultured with 1000 nM) was 0.6 +/− 0.1 /10^3 live cells. For the same molecule, the “CD45.1+ cells/10^3 live cells +/− SD, Spleen” value ([4]; cells cultured with 1000 nM) was 10.6 +/− 1.9 /10^3 live cells, the “Total number of cells isolated (×10^3), Ileal LP” value ([4]; cells cultured with 1000 nM) was 1730 +/− 1023 ×10^3 and the “Total number of cells isolated (×10^3), Peyer's patches” value ([4]; cells cultured with 1000 nM) was 775 +/− 360 ×10^3. The “Total number of cells isolated (×10^3), Spleen” value ([4]; cells cultured with 1000 nM) was 90617 +/− 13418 ×10^3.
